Measured values: patent publication US20240269139A1, “COMPOUNDS FOR TARGETED PROTEIN DEGRADATION OF KINASES” (DANA-FARBER CANCER INSTITUTE, INC., priority 2020, published 2024)
Like-named read-outs stand apart in the source and are kept apart here.

What was measured:
[1] = molecular target: protein kinases (human kinome) (Homo sapiens, UniProt Q16584); assay type: cell-based; details: experiment wp117
[2] = molecular target: protein kinases (human kinome) (Homo sapiens, UniProt P53671); assay type: cell-based; details: for logFC LIMK2: LIMK2 (P53671), down; for logFC of LIMK2: LIMK2 P53671
Sequence of protein kinases (human kinome) (Homo sapiens, UniProt P53671) (P53671 whole entry): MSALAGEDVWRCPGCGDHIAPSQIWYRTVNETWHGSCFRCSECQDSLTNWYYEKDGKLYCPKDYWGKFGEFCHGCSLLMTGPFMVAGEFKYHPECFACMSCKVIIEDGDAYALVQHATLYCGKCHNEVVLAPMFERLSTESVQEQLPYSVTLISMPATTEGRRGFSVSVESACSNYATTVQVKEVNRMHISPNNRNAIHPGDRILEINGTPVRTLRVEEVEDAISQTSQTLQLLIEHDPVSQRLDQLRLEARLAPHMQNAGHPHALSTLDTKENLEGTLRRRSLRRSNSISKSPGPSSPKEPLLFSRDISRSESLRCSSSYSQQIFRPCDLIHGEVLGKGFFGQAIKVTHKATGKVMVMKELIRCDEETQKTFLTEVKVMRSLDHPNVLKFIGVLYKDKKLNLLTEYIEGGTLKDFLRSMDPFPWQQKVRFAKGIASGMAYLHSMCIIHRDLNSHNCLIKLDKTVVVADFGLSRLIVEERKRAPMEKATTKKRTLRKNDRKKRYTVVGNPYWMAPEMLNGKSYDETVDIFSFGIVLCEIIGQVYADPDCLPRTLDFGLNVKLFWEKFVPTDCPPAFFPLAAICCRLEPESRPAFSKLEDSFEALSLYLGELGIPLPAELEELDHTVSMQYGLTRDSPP

[3] = molecular target: protein kinases (human kinome) (Homo sapiens, UniProt P45984); assay type: cell-based; details: MAPK9 P45984-1
Sequence of protein kinases (human kinome) (Homo sapiens, UniProt P45984) (P45984 whole entry): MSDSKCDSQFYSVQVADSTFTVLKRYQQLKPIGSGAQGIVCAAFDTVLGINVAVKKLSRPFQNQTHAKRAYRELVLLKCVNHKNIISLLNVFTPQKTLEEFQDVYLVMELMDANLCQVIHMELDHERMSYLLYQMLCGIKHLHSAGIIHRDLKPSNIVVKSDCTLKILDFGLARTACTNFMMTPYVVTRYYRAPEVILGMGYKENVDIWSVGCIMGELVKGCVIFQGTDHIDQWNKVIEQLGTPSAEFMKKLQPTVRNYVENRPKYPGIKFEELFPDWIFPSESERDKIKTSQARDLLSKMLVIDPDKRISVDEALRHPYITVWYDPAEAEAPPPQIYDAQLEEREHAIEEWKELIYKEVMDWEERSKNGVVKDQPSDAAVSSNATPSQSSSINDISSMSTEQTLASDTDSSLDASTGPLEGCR

[4] = molecular target: protein kinases (human kinome) (Homo sapiens, UniProt Q15118); assay type: cell-based; details: PDK1 Q15118
Sequence of protein kinases (human kinome) (Homo sapiens, UniProt Q15118) (Q15118 29-436): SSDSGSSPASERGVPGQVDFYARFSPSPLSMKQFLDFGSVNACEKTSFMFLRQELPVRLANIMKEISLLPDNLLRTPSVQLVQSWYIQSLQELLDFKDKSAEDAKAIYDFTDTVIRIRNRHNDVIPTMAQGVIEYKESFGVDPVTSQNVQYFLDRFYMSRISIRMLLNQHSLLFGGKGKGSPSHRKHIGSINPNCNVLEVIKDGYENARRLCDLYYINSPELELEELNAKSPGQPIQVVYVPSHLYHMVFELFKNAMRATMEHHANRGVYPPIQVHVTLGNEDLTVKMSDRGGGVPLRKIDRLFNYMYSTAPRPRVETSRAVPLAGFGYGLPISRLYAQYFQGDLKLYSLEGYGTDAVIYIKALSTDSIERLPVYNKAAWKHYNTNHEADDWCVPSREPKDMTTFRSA

[5] = molecular target: protein kinases (human kinome) (Homo sapiens, UniProt Q9HBH9); assay type: cell-based
Sequence of protein kinases (human kinome) (Homo sapiens, UniProt Q9HBH9) (Q9HBH9 whole entry): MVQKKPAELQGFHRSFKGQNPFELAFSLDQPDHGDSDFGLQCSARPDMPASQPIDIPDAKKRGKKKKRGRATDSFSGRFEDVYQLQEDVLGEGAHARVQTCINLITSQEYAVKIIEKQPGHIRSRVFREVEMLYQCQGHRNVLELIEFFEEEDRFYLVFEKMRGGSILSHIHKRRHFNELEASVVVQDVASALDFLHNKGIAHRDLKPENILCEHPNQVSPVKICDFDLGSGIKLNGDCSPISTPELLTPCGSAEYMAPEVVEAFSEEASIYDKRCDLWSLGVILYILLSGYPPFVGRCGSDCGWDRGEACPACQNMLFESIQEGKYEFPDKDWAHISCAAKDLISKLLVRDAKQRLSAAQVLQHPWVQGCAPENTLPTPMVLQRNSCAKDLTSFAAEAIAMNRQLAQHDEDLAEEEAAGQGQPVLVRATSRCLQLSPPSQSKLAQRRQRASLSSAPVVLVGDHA

[6] = molecular target: T1, extended human kinome (kinase-like proteins) (Homo sapiens, UniProt P54886); test: Whole cell quantitative proteomics: extended kinome hits; details: Accession P54886
T1 sequence (P54886 1-795): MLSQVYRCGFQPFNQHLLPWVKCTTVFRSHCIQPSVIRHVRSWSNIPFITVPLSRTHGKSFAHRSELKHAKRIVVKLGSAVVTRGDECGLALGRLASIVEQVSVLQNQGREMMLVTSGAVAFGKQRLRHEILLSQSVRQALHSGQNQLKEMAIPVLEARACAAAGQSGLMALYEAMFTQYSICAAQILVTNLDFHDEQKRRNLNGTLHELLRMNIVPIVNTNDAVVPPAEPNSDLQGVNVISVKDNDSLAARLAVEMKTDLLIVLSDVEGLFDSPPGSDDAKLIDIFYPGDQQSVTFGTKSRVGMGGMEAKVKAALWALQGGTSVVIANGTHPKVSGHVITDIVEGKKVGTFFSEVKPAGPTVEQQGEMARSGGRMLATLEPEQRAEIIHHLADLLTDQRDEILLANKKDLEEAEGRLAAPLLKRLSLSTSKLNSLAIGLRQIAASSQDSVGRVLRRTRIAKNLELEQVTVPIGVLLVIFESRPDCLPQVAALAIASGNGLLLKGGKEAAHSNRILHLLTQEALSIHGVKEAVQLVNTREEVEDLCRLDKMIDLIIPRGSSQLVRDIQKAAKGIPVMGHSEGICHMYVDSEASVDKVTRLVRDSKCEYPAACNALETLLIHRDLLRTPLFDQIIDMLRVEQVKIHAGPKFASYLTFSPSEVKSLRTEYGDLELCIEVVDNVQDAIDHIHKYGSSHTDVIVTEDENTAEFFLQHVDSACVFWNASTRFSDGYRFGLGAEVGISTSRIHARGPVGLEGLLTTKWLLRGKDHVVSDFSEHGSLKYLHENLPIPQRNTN
Experimental: Whole cell multiplexed quantitative proteomics was employed to measure changes in abundance of the proteome in response to treatment with each of the kinase degrader molecules relative to DMSO (Table 1, Appendix I).
Cells were treated with DMSO (biological triplicate) or degrader at indicated dose and time and cells were harvested by centrifugation. […] Precipitated protein was resuspended in 4 M Urea, 50 mM HEPES pH 7.4, followed by dilution to 1 M urea with the addition of 200 mM EPPS, pH 8. Proteins were first digested with LysC (1:50: enzyme:protein) for 12 hours at room temperature. The LysC digestion was diluted to 0.5 M Urea with 200 mM EPPS pH 8 followed by digestion with trypsin (1:50; enzyme:protein) for 6 hours at 37° C. Tandem mass tag (TMT) reagents (Thermo Fisher Scientific) were dissolved in anhydrous acetonitrile (ACN) according to manufacturer's instructions. […] The 10, 11, or 16-plex labeling reactions were performed for 1.5 hours at room temperature and the reaction quenched by the addition of hydroxylamine to a final concentration of 0.3% for 15 minutes at room temperature. The sample channels were combined at a 1:1 ratio, desalted using C18 solid phase extraction cartridges (Waters®) and analyzed by LC-MS for channel ratio comparison. Samples were then combined using the adjusted volumes determined in the channel ratio analysis and dried down in a speed vacuum. The combined sample was then resuspended in 1% formic acid, and acidified (pH 2-3) before being subjected to desalting with C18 SPE (Sep-Pak®, Waters®). Samples were then offline fractionated into 96 fractions by high pH reverse-phase HPLC (Agilent® LC1260) through an aeris peptide xb-c18 column (Phenomenex®) with mobile phase A containing 5% acetonitrile and 10 mM NH4HCO3 in LC-MS grade H2O, and mobile phase B containing 90% acetonitrile and 10 mM NH4HCO3 in LC-MS grade H2O (both pH 8.0). The 96 resulting fractions were then pooled in a non-continuous manner into 24 fractions and desalted using C18 solid phase extraction plates (SOLA®, Thermo Fisher Scientific) followed by subsequent mass spectrometry analysis.
Data were collected using an Orbitrap Fusion™ Lumos™ mass spectrometer (Thermo Fisher Scientific, San Jose, CA, USA) coupled with a Proxeon EASY-nLC™ 1200 LC pump (Thermo Fisher Scientific) or an Orbitrap Eclipse™ Tribrid™ mass spectrometer (Thermo Fisher Scientific, San Jose, CA, USA) coupled with an UltiMate™ 3000 RSLCnano System. Peptides were separated on an EasySpray™ ES803a/ES803a.rev2 75 μm inner diameter microcapillary column (ThermoFisher Scientific).
Data dependent MS2 spectra were acquired in the ion trap with a normalized collision energy (NCE) set at 35%, AGC target set to 1.8×10^4 and a maximum injection time of 120 ms. MS3 scans were acquired in the Orbitrap with HCD collision energy set to 55%. AGC target set to 2×10^5, maximum injection time of 150 ms, resolution at 50,000 and with a maximum synchronous precursor selection (SPS) precursors set to 10.
Proteome Discoverer™ 2.1, 2.2 or 2.4 (Thermo Fisher Scientific) was used for .RAW file processing and controlling peptide and protein level false discovery rates, assembling proteins from peptides, and protein quantification from peptides.

[7] = molecular target: protein kinases (human kinome) (Homo sapiens, UniProt Q00535); assay type: cell-based; details: for logFC of CDK5: Accession Q00535
Sequence of protein kinases (human kinome) (Homo sapiens, UniProt Q00535) (Q00535 whole entry): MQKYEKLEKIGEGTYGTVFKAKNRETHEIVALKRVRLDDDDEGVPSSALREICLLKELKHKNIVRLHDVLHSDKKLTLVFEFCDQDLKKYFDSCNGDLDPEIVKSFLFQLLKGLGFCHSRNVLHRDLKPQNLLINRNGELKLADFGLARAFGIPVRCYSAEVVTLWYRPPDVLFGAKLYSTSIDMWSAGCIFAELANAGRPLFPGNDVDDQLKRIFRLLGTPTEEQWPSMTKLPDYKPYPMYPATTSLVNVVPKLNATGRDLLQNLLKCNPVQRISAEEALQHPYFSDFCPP

[8] = molecular target: protein kinases (human kinome) (Homo sapiens, UniProt Q13233); assay type: cell-based
Sequence of protein kinases (human kinome) (Homo sapiens, UniProt Q13233) (Q13233 whole entry): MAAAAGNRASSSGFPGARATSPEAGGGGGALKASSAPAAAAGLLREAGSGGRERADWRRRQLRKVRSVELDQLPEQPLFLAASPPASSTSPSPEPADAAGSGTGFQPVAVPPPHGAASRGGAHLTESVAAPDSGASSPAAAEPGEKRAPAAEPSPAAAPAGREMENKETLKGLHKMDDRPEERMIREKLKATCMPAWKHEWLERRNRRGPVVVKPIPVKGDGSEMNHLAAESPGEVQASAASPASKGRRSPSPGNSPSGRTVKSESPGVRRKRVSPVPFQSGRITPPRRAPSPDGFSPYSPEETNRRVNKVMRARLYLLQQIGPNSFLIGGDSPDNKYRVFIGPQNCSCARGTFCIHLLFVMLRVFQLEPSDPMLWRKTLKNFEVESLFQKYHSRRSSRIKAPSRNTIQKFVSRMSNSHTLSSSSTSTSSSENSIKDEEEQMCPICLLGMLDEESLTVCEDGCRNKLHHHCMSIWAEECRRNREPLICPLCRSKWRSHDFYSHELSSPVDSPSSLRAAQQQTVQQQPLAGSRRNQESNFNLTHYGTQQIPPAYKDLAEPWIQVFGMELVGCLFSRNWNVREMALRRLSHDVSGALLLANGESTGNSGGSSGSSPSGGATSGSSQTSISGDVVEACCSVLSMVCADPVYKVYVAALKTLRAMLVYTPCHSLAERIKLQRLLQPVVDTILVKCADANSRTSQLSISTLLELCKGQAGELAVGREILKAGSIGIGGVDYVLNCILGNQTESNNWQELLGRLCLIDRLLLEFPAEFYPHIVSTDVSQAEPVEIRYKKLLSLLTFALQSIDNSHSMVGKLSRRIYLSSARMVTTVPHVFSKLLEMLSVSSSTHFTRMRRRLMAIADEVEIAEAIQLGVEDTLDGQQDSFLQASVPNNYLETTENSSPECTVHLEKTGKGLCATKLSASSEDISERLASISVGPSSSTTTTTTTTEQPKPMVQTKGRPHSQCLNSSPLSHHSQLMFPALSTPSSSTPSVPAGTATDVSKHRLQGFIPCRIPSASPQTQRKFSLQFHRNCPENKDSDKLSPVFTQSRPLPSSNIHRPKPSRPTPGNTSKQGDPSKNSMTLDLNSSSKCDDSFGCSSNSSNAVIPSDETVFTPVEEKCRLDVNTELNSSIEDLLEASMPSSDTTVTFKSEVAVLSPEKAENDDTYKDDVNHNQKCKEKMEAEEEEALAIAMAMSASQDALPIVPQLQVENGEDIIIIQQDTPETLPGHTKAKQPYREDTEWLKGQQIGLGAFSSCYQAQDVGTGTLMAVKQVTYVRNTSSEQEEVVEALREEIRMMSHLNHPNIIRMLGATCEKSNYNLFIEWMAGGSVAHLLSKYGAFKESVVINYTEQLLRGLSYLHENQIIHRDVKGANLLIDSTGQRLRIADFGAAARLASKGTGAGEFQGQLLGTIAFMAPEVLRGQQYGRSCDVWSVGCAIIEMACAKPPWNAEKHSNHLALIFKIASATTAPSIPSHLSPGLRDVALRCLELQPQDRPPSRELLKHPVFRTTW

[9] = molecular target: protein kinases (human kinome) (Homo sapiens, UniProt P50613); assay type: cell-based
Sequence of protein kinases (human kinome) (Homo sapiens, UniProt P50613) (P50613 whole entry): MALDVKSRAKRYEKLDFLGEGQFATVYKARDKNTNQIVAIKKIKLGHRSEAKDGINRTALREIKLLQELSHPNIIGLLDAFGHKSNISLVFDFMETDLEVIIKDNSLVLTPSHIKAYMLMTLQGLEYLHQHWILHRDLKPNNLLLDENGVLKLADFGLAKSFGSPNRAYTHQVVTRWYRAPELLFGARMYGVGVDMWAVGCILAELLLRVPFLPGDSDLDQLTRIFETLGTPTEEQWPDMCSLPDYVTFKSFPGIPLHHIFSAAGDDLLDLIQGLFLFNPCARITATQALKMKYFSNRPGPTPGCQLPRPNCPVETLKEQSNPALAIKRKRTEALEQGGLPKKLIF

[10] = molecular target: protein kinases (human kinome) (Homo sapiens, UniProt P24941); assay type: cell-based
[11] = molecular target: protein kinases (human kinome) (Homo sapiens, UniProt Q07912); assay type: cell-based

Sequence of protein kinases (human kinome) (Homo sapiens, UniProt Q16584) (Q16584 whole entry): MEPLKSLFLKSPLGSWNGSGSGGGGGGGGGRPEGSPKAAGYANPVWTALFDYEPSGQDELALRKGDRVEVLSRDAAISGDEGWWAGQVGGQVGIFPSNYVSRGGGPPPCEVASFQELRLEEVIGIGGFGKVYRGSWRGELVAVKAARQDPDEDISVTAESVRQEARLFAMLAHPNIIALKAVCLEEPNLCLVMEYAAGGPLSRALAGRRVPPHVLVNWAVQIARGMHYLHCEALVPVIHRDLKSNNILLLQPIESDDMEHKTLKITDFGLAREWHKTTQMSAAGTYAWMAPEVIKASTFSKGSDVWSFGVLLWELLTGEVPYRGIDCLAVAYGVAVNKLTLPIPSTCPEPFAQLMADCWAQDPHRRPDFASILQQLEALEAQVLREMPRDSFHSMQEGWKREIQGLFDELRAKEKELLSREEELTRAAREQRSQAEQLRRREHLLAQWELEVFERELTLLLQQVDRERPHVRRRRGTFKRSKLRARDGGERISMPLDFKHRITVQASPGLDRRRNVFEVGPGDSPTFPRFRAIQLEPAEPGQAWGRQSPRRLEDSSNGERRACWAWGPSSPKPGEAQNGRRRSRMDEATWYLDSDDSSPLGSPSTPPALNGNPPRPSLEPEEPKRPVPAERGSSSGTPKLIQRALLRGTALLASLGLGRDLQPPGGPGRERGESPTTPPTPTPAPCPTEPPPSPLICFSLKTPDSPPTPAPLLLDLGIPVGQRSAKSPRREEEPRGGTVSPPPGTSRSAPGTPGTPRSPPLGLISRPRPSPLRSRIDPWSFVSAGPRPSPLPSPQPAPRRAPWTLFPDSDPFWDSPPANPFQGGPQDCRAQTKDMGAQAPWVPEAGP

For `CS(=O)(=O)Nc1cccc(-c2csc3cnc(Nc4ccc(N5CCN(CCCCCOc6cccc7c6C(=O)N(C6CCC(=O)NC6=O)C7=O)CC5)cc4)nc23)c1` (stereo not shown) [DB0614, N-(3-(2-((4-(4-(5-((2-(2,6-Dioxopiperidin-3-yl)-1,3-dioxoisoindolin-4-yl)oxy)pentyl)piperazin-1-yl)phenyl)amino)thieno[3,2-d]pyrimidin-7-yl)phenyl)methanesulfonamide], the “logFC MAP3K11 (Q16584)” value [1] was −0.7291, the “logFC LIMK2” value ([2]; experiment wp045) was −0.437 and the “logFC of LIMK2” value ([2]; experiment wp045) was −0.437. The logFC ([3]; experiment wp045) was −0.5244, the “logFC MAPK9” value ([3]; experiment wp045) was −0.5244 and the logFC ([3]; experiment wp117) was −0.564. For the same compound, the “logFC MAPK9” value ([3]; experiment wp117) was −0.564.
With `C=CCn1c(=O)c2cnc(Nc3ccc(N4CCN(CCCNc5cccc6c5C(=O)N(C5CCC(=O)NC5=O)C6=O)CC4)cc3)nc2n1-c1cccc(C(C)(C)O)n1` (stereo not shown) [ZNL.02.096] the logFC ([4]; experiment wp056) was −0.3685, the “logFC PDK1” value ([4]; experiment wp056) was −0.3685 and the “logFC MKNK2 (Q9HBH9-1)” value ([5]; Experiment wp118, direction down) was −0.4751. For the same compound, the logFC ([5]; MKNK2 (Q9HBH9-1), experiment wp118) was −0.4751 and the “logFC ALDH18A1” value ([6]; experiment wp118) was −0.4405.
With `Cc1ccc(C(=O)Nc2ccc(CN3CCN(CCCOCCOCCOCCNC(=O)COc4cccc5c4C(=O)N(C4CCC(=O)NC4=O)C5=O)CC3)c(C(F)(F)F)c2)cc1C#Cc1cnc2cccnn12` (stereo not shown) [SB1.G.187] the logFC ([4]; experiment wp056) was −0.4134, the “logFC PDK1” value ([4]; experiment wp056) was −0.4134 and the “logFC of CDK5” value ([7]; experiment wp056) was −0.4804. The “logFC of CDK5” value ([7]; experiment wp103) was −0.5924, the “logFC of CDK5” value ([7]; experiment wp105) was −0.6053 and the “logFC CDK5 (Q00535)” value ([7]; Experiment wp105, direction of change down) was −0.6053. For the same compound, the “logFC CDK5 (Q00535)” value ([7]; Experiment wp107) was −0.6778, the “logFC CDK5 (Q00535)” value ([7]; Experiment wp172) was −0.8938 and the “logFC CDK5 (Q00535)” value ([7]; experiment wp056, direction of change down) was −0.4804. The “logFC CDK5 (Q00535)” value ([7]; experiment wp103, direction of change down) was −0.5924, the “logFC CDK5 (Q00535)” value ([7]; experiment wp107, direction of change down) was −0.6778 and the “logFC CDK5 (Q00535)” value ([7]; experiment wp172, direction of change down) was −0.8938. The “logFC MAP3K1” value ([8]; Accession Q13233, experiment wp056, direction down) was −0.7809, the “logFC MAP3K1” value ([8]; Accession Q13233, experiment wp103, direction down) was −0.5815 and the “logFC MAP3K1” value ([8]; Accession Q13233, experiment wp107, direction down) was −0.6693. The “logFC MAP3K1” value ([8]; MAP3K1 (Q13233), experiment wp056) was −0.7809, the “logFC MAP3K1” value ([8]; MAP3K1 (Q13233), experiment wp103) was −0.5815 and the “logFC MAP3K1” value ([8]; MAP3K1 (Q13233), experiment wp107) was −0.6693. The “logFC ALDH18A1” value ([6]; experiment wp056) was −0.4458.
For `CN(C)C(=O)c1cc2cnc(Nc3ccc(N4CCN(CCCCNC(=O)COc5cccc6c5C(=O)N(C5CCC(=O)NC5=O)C6=O)CC4)cn3)nc2n1C1CCCC1` (stereo not shown) [BSJ.04.132], the logFC ([4]; experiment wp084) was −0.7569, the “logFC PDK1” value ([4]; experiment wp084) was −0.7569 and the “logFC ALDH18A1” value ([6]; experiment wp084) was −0.6568.
`O=C(COc1cccc2c1C(=O)N(C1CCC(=O)NC1=O)C2=O)NCCCCCCCC(=O)NC1(c2ccc(-c3nc4ccn5c(=O)[nH]nc5c4cc3-c3ccccc3)cc2)CCC1` (stereo not shown) [INY.01.140.1] was tested, and the logFC ([4]; experiment wp081) was −0.4328, the “logFC PDK1” value ([4]; experiment wp081) was −0.4328 and the “logFC ALDH18A1” value ([6]; experiment wp081) was −0.4491.
For `CC(=O)c1c(C)c2cnc(Nc3ccc(N4CCN(CCOCCOCCOCCNC(=O)COc5cccc6c5C(=O)N(C5CCC(=O)NC5=O)C6=O)CC4)cn3)nc2n(C2CCCC2)c1=O` (stereo not shown) [BSJ.03.123], the logFC ([4]; experiment wp084) was −0.5666, the “logFC PDK1” value ([4]; experiment wp084) was −0.5666 and the “logFC ALDH18A1” value ([6]; experiment wp084) was −0.5282.
In the case of `CNC(=O)c1ccccc1Nc1cc(Nc2ccc(N3CCN(CCOCCOCCNC(=O)CNc4cccc5c4C(=O)N(C4CCC(=O)NC4=O)C5=O)CC3)cc2OC)ncc1C(F)(F)F` (stereo not shown) [MFH.5.103.1], the logFC ([9]; CDK7 (P50613) protein abundance, degrader vs DMSO, down) is reported as −0.5098, the “logFC CDK7” value ([9]; CDK7 P50613, experiment wp076) is reported as −0.5098 and the “logFC ALDH18A1” value ([6]; experiment wp076) is reported as −0.4191.
For `C[C@@H]1C[C@@H](O)c2ncnc(N3CCN(C(=O)[C@H](CNCCCCCCCCCCc4cccc5c4C(=O)N(C4CCC(=O)NC4=O)C5=O)c4ccc(Cl)cc4)CC3)c21` (stereo partly shown) [INY.03.041.01], the “logFC ALDH18A1” value ([6]; experiment wp118) was −0.376.
In the case of `CC(C)(C)c1nc(-c2cccc(NS(=O)(=O)c3c(F)cccc3F)c2F)c(-c2ccnc(NCCOCCNC(=O)CCOCCOCCNc3cccc4c3C(=O)N(C3CCC(=O)NC3=O)C4=O)n2)s1` (stereo not shown) [DD.03.106], the logFC ([4]; experiment wp147, 1 uM) is reported as −0.3363, the “logFC PDK1” value ([4]; experiment wp147, 1 uM) is reported as −0.3363 and the logFC ([4]; experiment wp147, 4 uM) is reported as −0.6592. The “logFC PDK1” value ([4]; experiment wp147, 4 uM) was −0.6592, the “logFC CDK2 (P24941-1)” value ([10]; Experiment wp147, 2 uM) was −0.4932 and the “logFC CDK2 (P24941-1)” value ([10]; Experiment wp147, 4 uM) was −0.5248. The “logFC CDK2 (P24941-1)” value ([10]; experiment wp137) was −0.3437, the “logFC CDK2 (P24941-1)” value ([10]; experiment wp137, direction of change down) was −0.3437 and the “logFC CDK2 (P24941-1)” value ([10]; experiment wp147, 1 uM) was −0.3285. For the same compound, the “logFC CDK2 (P24941-1)” value ([10]; experiment wp147, 1 uM, direction of change down) was −0.3285, the “logFC CDK2 (P24941-1)” value ([10]; experiment wp147, 2 uM, direction of change down) was −0.4932 and the “logFC CDK2 (P24941-1)” value ([10]; experiment wp147, 4 uM, direction of change down) was −0.5248. For the same compound, the “logFC LIMK2” value ([2]; experiment wp137) was −1.026, the “logFC of LIMK2” value ([2]; experiment wp137) was −1.026 and the “logFC ALDH18A1” value ([6]; experiment wp147, 1 uM) was −0.3463. The “logFC ALDH18A1” value ([6]; experiment wp147, 4 uM) was −0.8823.
With `Cn1c(=O)c(-c2c(Cl)cccc2Cl)cc2cnc(Nc3ccc(OCCNC(=O)CCCCCCNC(=O)COc4cccc5c4C(=O)N(C4CCC(=O)NC4=O)C5=O)cc3)nc21` (stereo not shown) [SB1.G.192.1] the logFC ([4]; experiment wp081) was −0.3388, the “logFC PDK1” value ([4]; experiment wp081) was −0.3388 and the “logFC TNK2 (Q07912-1)” value ([11]; Experiment wp131, direction down) was −1.488. For the same compound, the “logFC TNK2” value ([11]; TNK2 (Q07912-1), experiment wp131) was −1.488, the “logFC LIMK2” value ([2]; experiment wp081) was −0.371 and the “logFC LIMK2” value ([2]; experiment wp131) was −0.5544. The “logFC of LIMK2” value ([2]; experiment wp081) was −0.371, the “logFC of LIMK2” value ([2]; experiment wp131) was −0.5544 and the “logFC ALDH18A1” value ([6]; experiment wp081) was −0.39.
For `CC(C)(C)c1nc(-c2cccc(NS(=O)(=O)c3c(F)cccc3F)c2F)c(-c2ccnc(NCCOCCNC(=O)CCOCCOCCNc3cccc4c3CN(C3CCC(=O)NC3=O)C4=O)n2)s1` (stereo not shown) [DD.03.107], the logFC ([4]; experiment wp147, 1 uM) was −0.4722, the “logFC PDK1” value ([4]; experiment wp147, 1 uM) was −0.4722 and the logFC ([4]; experiment wp147, 2 uM) was −0.4534. For the same compound, the “logFC PDK1” value ([4]; experiment wp147, 2 uM) was −0.4534, the logFC ([4]; experiment wp147, 4 uM) was −1.108 and the “logFC PDK1” value ([4]; experiment wp147, 4 uM) was −1.108. The “logFC ALDH18A1” value ([6]; experiment wp147, 1 uM) was −0.6536, the “logFC ALDH18A1” value ([6]; experiment wp147, 2 uM) was −0.7374 and the “logFC ALDH18A1” value ([6]; experiment wp147, 4 uM) was −1.326.
`Cc1cnc(Nc2ccc(N3CCN(CCOCCOCCNC(=O)COc4cccc5c4C(=O)N(C4CCC(=O)NC4=O)C5=O)CC3)cc2)nc1Nc1cccc(S(=O)(=O)NC(C)(C)C)c1` (stereo not shown) [JWG.118] was tested, and the “logFC ALDH18A1” value ([6]; experiment wp071) was −0.4227.
